{
  "source": "patent US9518974B2",
  "about": "“Sensor system for detecting organophosphorus residues by inducing coagulation of gold nanoparticles” (priority 2014, dated 2016)",
  "molecular_target": "EGFP (Aequorea victoria, UniProt P42212, F64L/H231L/S65T)",
  "experiment": "Influence of organophosphorus pesticide on activity (fluorescence) of EGFP",
  "details": "pesticide 10 ppb to 10 ppm, excitation 480 nm, emission 510 nm, control 10% methanol",
  "data": [
    {"smiles": "CCOP(=O)(Sc1ccccc1)Sc1ccccc1", "note": "[edifenphos]", "values": [
      {"measurement": "intensity of fluorescence of EGFP", "result": "the same results"}
    ]},
    {"smiles": "CC(C)OP(=O)(OC(C)C)SCc1ccccc1", "note": "[iprobenfos]", "values": [
      {"measurement": "intensity of fluorescence of EGFP", "result": "the same results"}
    ]}
  ]
}
